Tested on: AKT
Test: Western blot of AKT protein levels in PC-3 cells
Format: cell-based, human
Details: for suppression of AKT protein level and AKT activity: 1 μM (FIGS. 11 and 12); for AKT protein levels: 1 μM for 24 h (FIGS. 11, 12)
Protocol: PC-3, U87MG, HCC1143, MDA-MB-231, MDA-MB-468, BT474 and MCF-7 cell lines were purchased from ATCC. Cell lines were regularly tested in the lab for mycoplasma. All cells were cultured at 37° C. and 5% CO2. PC-3, U87MG, MDA-MB-231, MCF-7 and BT474 cells were cultured in 1×DMEM (Corning, 10-013-CV) with 10% fetal bovine serum (Atlanta Biologicals S11150) and 1× Penicillin/Streptomycin. HCC1143 cells were cultured in RPMI (Corning, 10-040-CV) medium with 10% fetal bovine serum (Atlanta Biologicals S11150) and 1× Penicillin/Streptomycin. Cells were split using 0.05% or 0.25% trypsin (Corning 25-051-Cl or 25-053-Cl, respectively) before they reached full confluence and media was changed every 3-4 days. Cells were treated with compounds individually at different concentrations for 24 hrs. Cells were treated with DMSO, VHL, or PML alone as controls.
Cells were lysed in 2× sample buffer (125 mM Tris-HCl at pH 6.8, 10% βME, 2% SDS, 20% glycerol, 0.05% Bromophenol Blue, 8 M urea). Protein lysates were loaded into 4-12% Bis-Tris gels and resolved by electrophoresis. Samples were then blotted on PVDF membrane (Millipore IPVH00010) using the wet transfer technique (Invitrogen). Membranes were blocked in 5% milk-TBST for 1 hour, washed in TBST for 10 min, and incubated in primary antibody in 5% milk-TBST or 5% BSA-TBST at 4° C. for 16 h. Membranes were rinsed (3×6 min) in TBST and incubated in horseradish peroxidase-conjugated secondary antibodies in 5% milk-TBST for 1 hour and rinsed again in TBST (3×6 min). Membranes were visualized using the chemiluminescence system (Thermo 34080, 37075) on autoradiography film (Denville E3018). Primary Antibodies: R-actin (Sigma A5316), p-AKT (Ser473 CST-9721), total AKT (CST-9272), p-S6 (Ser240/244, CST-5364), p-PRAS40 (Thr246, CST-2997). Secondary Antibodies: Mouse (Thermo 31432), Rabbit (Thermo 31460).

Structure (SMILES) | suppression of AKT protein level and AKT activity | AKT protein levels
Cc1ncsc1-c1ccc(CNC(=O)[C@@H]2C[C@@H](O)CN2C(=O)[C@@H](NC(=O)CCCCCCCCC(=O)NCCc2cccc(-c3ccc4nc(-c5cccnc5N)n(-c5ccc(C6(N)CCC6)cc5)c4n3)c2)C(C)(C)C)cc1 [XF067-46, N^1-(3-(3-(4-(1-aminocyclobutyl)phenyl)-2-(2-aminopyridin-3-yl)-3H-imidazo[4,5-b]pyridin-5-yl)phenethyl)-N^10-((S)-1-((2S,4R)-4-hydroxy-2-((4-(4-methylthiazol-5-yl)benzyl)carbamoyl)pyrrolidin-1-yl)-3,3-dimethyl-1-oxobutan-2-yl)decanediamide] | effective in suppressing AKT protein level and AKT activity | –
Nc1ncccc1-c1nc2ccc(-c3ccccc3)nc2n1-c1ccc(C2(N)CCC2)cc1 [ARQ-092, 3-(3-(4-(1-Aminocyclobutyl)phenyl)-5-phenyl-3H-imidazo[4,5-b]pyridin-2-yl)pyridin-2-amine, reference compound] | – | no effect
CCn1c(-c2nonc2N)nc2c(C#CC(C)(C)O)ncc(OCCCNCCCC(=O)NCCCCCCCCNc3cccc4c3C(=O)N(C3CCC(=O)NC3=O)C4=O)c21 (centres unmarked) [XF067-113, 4-((3-((2-(4-amino-1,2,5-oxadiazol-3-yl)-1-ethyl-4-(3-hydroxy-3-methylbut-1-yn-1-yl)-1H-imidazo[4,5-c]pyridin-7-yl)oxy)propyl)amino)-N-(8-((2-(2,6-dioxopiperidin-3-yl)-1,3-dioxoisoindolin-4-yl)amino)octyl)butanamide] | effective in suppressing AKT protein level and AKT activity | –
Cc1ncsc1-c1ccc(CNC(=O)[C@@H]2C[C@@H](O)CN2C(=O)[C@@H](NC(=O)CCCCCCCCCNC(=O)CCc2cccc(-c3ccc4nc(-c5cccnc5N)n(-c5ccc(C6(N)CCC6)cc5)c4n3)c2)C(C)(C)C)cc1 [XF067-17, (2S,4R)-1-((S)-2-(10-(3-(3-(3-(4-(1-aminocyclobutyl)phenyl)-2-(2-aminopyridin-3-yl)-3H-imidazo[4,5-b]pyridin-5-yl)phenyl)propanamido)decanamido)-3,3-dimethylbutanoyl)-4-hydroxy-N-(4-(4-methylthiazol-5-yl)benzyl)pyrrolidine-2-carboxamide] | effective in suppressing AKT protein level and AKT activity | –
CCn1c(-c2nonc2N)nc2c(C#CC(C)(C)O)ncc(OC[C@H]3CCCNC3)c21 [GSK690693, 4-(2-(4-amino-1,2,5-oxadiazol-3-yl)-1-ethyl-7-{[(3S)-3-piperidinylmethyl]oxy}-1H-imidazo[4,5-c]pyridin-4-yl)-2-methyl-3-butyn-2-ol, reference compound] | – | no effect
Cc1ncsc1-c1ccc(CNC(=O)[C@@H]2C[C@@H](O)CN2C(=O)[C@@H](NC(=O)CCCCCCCC(=O)NCCc2cccc(-c3ccc4nc(-c5cccnc5N)n(-c5ccc(C6(N)CCC6)cc5)c4n3)c2)C(C)(C)C)cc1 [XF067-45, N^1-(3-(3-(4-(1-aminocyclobutyl)phenyl)-2-(2-aminopyridin-3-yl)-3H-imidazo[4,5-b]pyridin-5-yl)phenethyl)-N^9-((S)-1-((2S,4R)-4-hydroxy-2-((4-(4-methylthiazol-5-yl)benzyl)carbamoyl)pyrrolidin-1-yl)-3,3-dimethyl-1-oxobutan-2-yl)nonanediamide] | effective in suppressing AKT protein level and AKT activity | –
CCn1c(-c2nonc2N)nc2c(C#CC(C)(C)O)ncc(OCCCNCCCC(=O)NCCCCCCCCCCC(=O)N[C@H](C(=O)N3C[C@H](O)C[C@H]3C(=O)NCc3ccc(-c4scnc4C)cc3)C(C)(C)C)c21 [XF067-101, (2S,4R)-1-((S)-2-(11-(4-((3-((2-(4-amino-1,2,5-oxadiazol-3-yl)-1-ethyl-4-(3-hydroxy-3-methylbut-1-yn-1-yl)-1H-imidazo[4,5-c]pyridin-7-yl)oxy)propyl)amino)butanamido)undecanamido)-3,3-dimethylbutanoyl)-4-hydroxy-N-(4-(4-methylthiazol-5-yl)benzyl)pyrrolidine-2-carboxamide] | effective in suppressing AKT protein level and AKT activity | –
CCn1c(-c2nonc2N)nc2c(C#CC(C)(C)O)ncc(OCCCNCCCC(=O)NCCCCCCCNc3cccc4c3C(=O)N(C3CCC(=O)NC3=O)C4=O)c21 (centres unmarked) [XF067-112, 4-((3-((2-(4-amino-1,2,5-oxadiazol-3-yl)-1-ethyl-4-(3-hydroxy-3-methylbut-1-yn-1-yl)-1H-imidazo[4,5-c]pyridin-7-yl)oxy)propyl)amino)-N-(7-((2-(2,6-dioxopiperidin-3-yl)-1,3-dioxoisoindolin-4-yl)amino)heptyl)butanamide] | effective in suppressing AKT protein level and AKT activity | –
Cc1ncsc1-c1ccc(CNC(=O)[C@@H]2C[C@@H](O)CN2C(=O)[C@@H](NC(=O)CCCCCCCCCC(=O)NCCc2cccc(-c3ccc4nc(-c5cccnc5N)n(-c5ccc(C6(N)CCC6)cc5)c4n3)c2)C(C)(C)C)cc1 [XF067-47, N^1-(3-(3-(4-(1-aminocyclobutyl)phenyl)-2-(2-aminopyridin-3-yl)-3H-imidazo[4,5-b]pyridin-5-yl)phenethyl)-N^11-((S)-1-((2S,4R)-4-hydroxy-2-((4-(4-methylthiazol-5-yl)benzyl)carbamoyl)pyrrolidin-1-yl)-3,3-dimethyl-1-oxobutan-2-yl)undecanediamide] | effective in suppressing AKT protein level and AKT activity | –
CCn1c(-c2nonc2N)nc2c(C#CC(C)(C)O)ncc(OCCCNCCCC(=O)NCCCCCCCCCC(=O)N[C@H](C(=O)N3C[C@H](O)C[C@H]3C(=O)NCc3ccc(-c4scnc4C)cc3)C(C)(C)C)c21 [XF067-100, (2S,4R)-1-((S)-2-(10-(4-((3-((2-(4-amino-1,2,5-oxadiazol-3-yl)-1-ethyl-4-(3-hydroxy-3-methylbut-1-yn-1-yl)-1H-imidazo[4,5-c]pyridin-7-yl)oxy)propyl)amino)butanamido)decanamido)-3,3-dimethylbutanoyl)-4-hydroxy-N-(4-(4-methylthiazol-5-yl)benzyl)pyrrolidine-2-carboxamide] | effective in suppressing AKT protein level and AKT activity | –
CCn1c(-c2nonc2N)nc2c(C#CC(C)(C)O)ncc(OCCCNCCCC(=O)NCCCCCCCCC(=O)N[C@H](C(=O)N3C[C@H](O)C[C@H]3C(=O)NCc3ccc(-c4scnc4C)cc3)C(C)(C)C)c21 [XF067-99, (2S,4R)-1-((S)-2-(9-(4-((3-((2-(4-amino-1,2,5-oxadiazol-3-yl)-1-ethyl-4-(3-hydroxy-3-methylbut-1-yn-1-yl)-1H-imidazo[4,5-c]pyridin-7-yl)oxy)propyl)amino)butanamido)nonanamido)-3,3-dimethylbutanoyl)-4-hydroxy-N-(4-(4-methylthiazol-5-yl)benzyl)pyrrolidine-2-carboxamide] | effective in suppressing AKT protein level and AKT activity | –

— patent US11472799B2, “Serine threonine kinase (AKT) degradation / disruption compounds and methods of use” (Icahn School of Medicine at Mount Sinai, priority 2018, dated 2022)
